Data from US10463753B2, “Radiolabeled monoacylglycerol lipase occupancy probe” (LUNDBECK LA JOLLA RESEARCH CENTER, INC., priority 2016, dated 2019).

Assays:
[1] = Free fraction of parent compound in plasma by ultrafiltration; format: in vitro ADME; conditions: human plasma, n=10; read-out: Free fraction of parent compound in plasma (not protein bound)
Protocol: (§1) Blood samples were analyzed by HPLC to determine the fraction of intact parent compound at each time point. […] Free fraction of parent compound in plasma (not protein bound) was also measured by ultrafiltration and estimated to be 0.36±0.04% (n=10).

[2] = Phase 0 whole-body biodistribution and radiation dosimetry by PET; format: in vivo, human
Protocol: (§2) An additional cohort of four healthy volunteers (two male, two female) was recruited for a whole body biodistribution cohort in which they underwent a single Compound 8F PET scan.
Elimination via the urinary route was very low.
The following organs were identified as source organs: brain, heart, liver, gallbladder, intestines, kidneys, and urinary bladder. […] The average whole body effective dose (ED) was determined to be 2.19E-02±2.83E-04 mSv/MBq (8.10E-02±1.05E-03 rem/mCi) for adult female and 1.85E-02±7.07E-04 mSv/MBq (6.85E-02±2.62E-03 rem/mCi) for adult male, where the critical organ was determined to be the liver. Stated differently, average whole body ED for females=21.9 μSv/MBq, and for males=18.5 μSv/MBq (average for male and female=20.2 μSv/MBq).

[3] = arterial plasma
[4] = In vitro plasma protein binding by ultrafiltration; format: in vitro ADME; conditions: rhesus monkey, read-out: Plasma free fraction (not protein bound)
[5] = Phase 0 study: parent fraction in blood/plasma by HPLC; format: in vivo; conditions: human blood
Protocol: as §2, §1

[6] = Whole-body biodistribution and radiation dosimetry by PET imaging; format: in vivo, rhesus monkey
Protocol: The average PET image over the total acquisition duration (˜240 min) of a female rhesus is shown in FIG. 6 (abbreviations: CT=computerized tomography; gb=gallbladder; HU=Hounsfield units; PET=positron emission tomography; SUV=standardized uptake value; ub=urinary bladder; VOI=volume of interest) at three different levels through the body. […] The volumes of interest (VOIs) drawn over the organs identified as sources for the radiation dosimetry calculation can be seen on both average PET and its associated computed tomography (CT) image. […] Selected organs are labeled in the figure. The non-decay corrected (used for the dosimetry calculation) and decay corrected time activity curves of the 11 source organs are shown in FIG. 8 for both the female and male rhesus monkey. The curve values are expressed as percent of injected activity. The total absorbed doses in various target organs generated by OLINDA|EXM 1.1 software are presented in Table 4 for both adult male and adult female models in units of millisievert per megabecquerel (mSv/MBq) and roentgen equivalent man per millicurie (rem/mCi). Kidneys received the highest radiation dose in both the male and female rhesus. The effective dose equivalent (with ICRP-26 tissue weighting factors) and effective dose (with ICRP-60 tissue weighting factors) calculated for the whole body are also listed in Table 4.

[7] = whole-body biodistribution cohort

O=C(OC(C(F)(F)F)C(F)(F)F)N1CCN(Cc2ccc(Cl)cc2N2CCN(CC[18F])CC2)CC1 [Compound 8F, [^18F]1,1,1,3,3,3-hexafluoropropan-2-yl 4-(4-chloro-2-(4-(2-fluoroethyl)piperazin-1-yl)benzyl)piperazine-1-carboxylate]
fraction unbound [1]: 0.0036 ± 0.0004 | Average whole body ED ([2]; average for male and female): 20.2 μSv/MBq | Average whole body ED ([2]; females): 21.9 μSv/MBq | Average whole body ED ([2]; males): 18.5 μSv/MBq | Elimination via the urinary route [2, 7]: very low | Maximum injected dose (ID) in the intestine [2, 7]: 6-7 % ID | Maximum injected dose (ID) in the liver [2, 7]: 26-28 % injected dose (ID) | Organ with highest radiation absorbed dose (critical organ) [2, 7]: liver | Route of elimination of the radiotracer [2, 7]: primarily via hepatobiliary route | Plasma level ([3]; by ~10 min post-dose): ≤ 0.01 % of the injected dose | Peak plasma concentration ([3]; single i.v. 2.25-4.99 mCi): ~0.04 % of the injected dose | Time of peak plasma concentration post-dose ([3]; single i.v. dose): ~5 min | fraction unbound ([4]; first study): 0.047 ± 0.006 | fraction unbound ([4]; second study): 0.008 ± 0.0004 | Stability in blood ex vivo [5]: stable | Organ receiving the highest radiation dose ([6]; both male and female rhesus): Kidneys | Organs with the highest uptake ([6]; i.v. bolus, whole-body PET): liver, heart wall, lungs, kidney and brain
